In patent publication US6737383B1, “Herbicidal oxadiazolidines” (priority 1999, dated 2004):

Legend:
corn = experiment: Test B pre/postemergence corn; type: in vivo, Zea mays
Method in brief: (§1)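 Test chemicals in a non-phytotoxic solvent mixture with surfactant were sprayed preemergence onto planted seeds and postemergence onto plants 2 to 18 cm tall (1- to 4-leaf stage). After twelve to sixteen days in a greenhouse, injury was visually rated against untreated controls from 0 (no effect) to 10 (complete control).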

wheat = experiment: Test B pre/postemergence wheat; type: in vivo, Triticum aestivum
Method in brief: as §1

surinam grass = experiment: Test B pre/postemergence surinam grass; type: in vivo, Brachiaria decumbens
Method in brief: as §1

smallflower flatsedge = experiment: Test B flood test smallflower flatsedge; type: in vivo, Cyperus difformis
Method in brief: (§2)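 Read-out is a visual response score from 0 (no effect) to 10 (complete control), assigned by comparison with untreated controls. Treatment was applied at the 2-leaf stage, and plants stayed in the greenhouse for twelve to sixteen days before scoring.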

bedstraw = experiment: Test B pre/postemergence bedstraw; type: in vivo, Galium aparine; conditions: Postemergence
Method in brief: as §1

rice = experiment: Test B flood test rice; type: in vivo, Oryza sativa
Method in brief: as §2

pigweed = experiment: Test B pre/postemergence pigweed; type: in vivo, Amaranthus retroflexus
Method in brief: as §1

soybean = experiment: Test B pre/postemergence soybean; type: in vivo, Glycine max
Method in brief: as §1

velvetleaf = experiment: Test B pre/postemergence velvetleaf; type: in vivo, Abutilon theophrasti
Method in brief: as §1

cocklebur = experiment: Test B pre/postemergence cocklebur; type: in vivo, Xanthium strumarium
Method in brief: as §1

duck salad = experiment: Test B flood test duck salad; type: in vivo, Heteranthera limosa
Method in brief: as §2

giant foxtail = experiment: Test B pre/postemergence giant foxtail; type: in vivo, Setaria faberii
Method in brief: as §1

purple nutsedge = experiment: Test B pre/postemergence purple nutsedge; type: in vivo, Cyperus rotundus
Method in brief: as §1

rape = experiment: Test B pre/postemergence rape; type: in vivo, Brassica napus
Method in brief: as §1

sugar beet = experiment: Test B pre/postemergence sugar beet; type: in vivo, Beta vulgaris
Method in brief: as §1

wild oat = experiment: Test B pre/postemergence wild oat; type: in vivo, Avena fatua
Method in brief: as §1

[1] = Postemergence, Rate 62 g/ha, scale 0 to 10, 0 is no effect, 10 is complete control
[2] = Postemergence, Rate 125 g/ha, scale of 0 to 10 where 0 is no effect and 10 is complete control
[3] = Postemergence, Rate 250 g/ha, scale of 0 to 10, 0 is no effect, 10 is complete control
[4] = Preemergence, Rate 62 g/ha, scale of 0 to 10 where 0 is no effect and 10 is complete control
[5] = Preemergence, Rate 125 g/ha, scale of 0 to 10 where 0 is no effect and 10 is complete control
[6] = Preemergence, Rate 250 g/ha, scale 0 to 10 (0 no effect, 10 complete control)
[7] = Preemergence, Rate 500 g/ha, scale of 0 to 10 where 0 is no effect and 10 is complete control
[8] = Rate 500 g/ha, Postemergence, scale 0 to 10, 0 is no effect, 10 is complete control
[9] = Rate 62 g/ha, flood test species, Pre-emergence, visual evaluation after twelve to sixteen days
[10] = Rate 125 g/ha, under heading Pre-emergence, flood test species, visual evaluation after twelve to sixteen days
[11] = Rate 250 g/ha, Pre-emergence (flood test species), scale 0 to 10, 0 is no effect, 10 is complete control
[12] = Rate 500 g/ha, Pre-emergence section of Table B, 0 to 10 scale (0 no effect, 10 complete control)

CC(C)N(C(=O)n1oc(=O)n(CCC(=O)N(C)C)c1=O)c1ccccc1 [Compound 671]
Plant response rating, Corn (corn; [1]): 0
Corn plant response rating (corn; [2]): 0
Corn plant response rating (corn; [3]): 0
Corn plant response rating (corn; [4]): 0
Plant response rating, Corn (corn; [5]): 0
Plant response rating, Corn (corn; [6]): 3
Plant response rating, Corn (corn; [7]): 9
Corn plant response rating (corn; [8]): 5
Plant response rating, Wheat (wheat; [1]): 0
Wheat plant response rating (wheat; [2]): 0
Wheat plant response rating (wheat; [4]): 0
Plant response rating, Wheat (wheat; [5]): 0
Plant response rating, Wheat (wheat; [6]): 3
Plant response rating, Wheat (wheat; [7]): 8
Wheat plant response rating (wheat; [8]): 6
Plant response rating, B. signalgrass (surinam grass; [1]): 0
Plant response rating, B. signalgrass (surinam grass; [2]): 1
B. signalgrass plant response rating (surinam grass; [3]): 6
B. signalgrass plant response rating (surinam grass; [4]): 4
Plant response rating, B. signalgrass (surinam grass; [5]): 6
Plant response rating, B. signalgrass (surinam grass; [6]): 7
Plant response rating, B. signalgrass (surinam grass; [7]): 9
B. signalgrass plant response rating (surinam grass; [8]): 8
Plant response rating, S. Flatsedge (0 to 10 scale, 0 is no effect, 10 is complete control) (smallflower flatsedge; [9]): 0
S. Flatsedge plant response rating (0 to 10 scale, 0 is no effect, 10 is complete control) (smallflower flatsedge; [10]): 0
S. Flatsedge plant response rating (smallflower flatsedge; [11]): 0
S. Flatsedge plant response rating (smallflower flatsedge; [12]): 0
Bedstraw plant response rating (bedstraw; Rate 125 g/ha, scale of 0 to 10 where 0 is no effect and 10 is complete control): 0
Bedstraw plant response rating (bedstraw; Rate 250 g/ha, scale of 0 to 10, 0 is no effect, 10 is complete control): 0
Bedstraw plant response rating (bedstraw; Rate 500 g/ha, scale 0 to 10, 0 is no effect, 10 is complete control): 0
Plant response rating, Rice (0 to 10 scale, 0 is no effect, 10 is complete control) (rice; [9]): 0
Rice plant response rating (0 to 10 scale, 0 is no effect, 10 is complete control) (rice; [10]): 0
Rice plant response rating (rice; [11]): 0
Rice plant response rating (rice; [12]): 0
Plant response rating, Redroot pigweed (pigweed; [1]): 0
Redroot pigweed plant response rating (pigweed; [2]): 1
Redroot pigweed plant response rating (pigweed; [4]): 0
Plant response rating, Redroot pigweed (pigweed; [5]): 2
Plant response rating, Redroot pigweed (pigweed; [6]): 10
Plant response rating, Redroot pigweed (pigweed; [7]): 10
Redroot pigweed plant response rating (pigweed; [8]): 5
Plant response rating, Soybean (soybean; [1]): 2
Soybean plant response rating (soybean; [2]): 2
Soybean plant response rating (soybean; [4]): 0
Plant response rating, Soybean (soybean; [5]): 0
Plant response rating, Soybean (soybean; [6]): 0
Plant response rating, Soybean (soybean; [7]): 3
Soybean plant response rating (soybean; [8]): 4
Plant response rating, Velvetleaf (velvetleaf; [1]): 0
Velvetleaf plant response rating (velvetleaf; [2]): 0
Velvetleaf plant response rating (velvetleaf; [4]): 2
Plant response rating, Velvetleaf (velvetleaf; [5]): 7
Plant response rating, Velvetleaf (velvetleaf; [6]): 7
Plant response rating, Velvetleaf (velvetleaf; [7]): 9
Velvetleaf plant response rating (velvetleaf; [8]): 3
Plant response rating, Cocklebur (cocklebur; [1]): 0
Cocklebur plant response rating (cocklebur; [2]): 0
Cocklebur plant response rating (cocklebur; [3]): 0
Cocklebur plant response rating (cocklebur; [4]): 0
Plant response rating, Cocklebur (cocklebur; [5]): 0
Plant response rating, Cocklebur (cocklebur; [6]): 0
Plant response rating, Cocklebur (cocklebur; [7]): 1
Cocklebur plant response rating (cocklebur; [8]): 1
Plant response rating, Ducksalad (0 to 10 scale, 0 is no effect, 10 is complete control) (duck salad; [9]): 0
Ducksalad plant response rating (0 to 10 scale, 0 is no effect, 10 is complete control) (duck salad; [10]): 0
Ducksalad plant response rating (duck salad; [11]): 0
Ducksalad plant response rating (duck salad; [12]): 0
Plant response rating, Giant foxtail (giant foxtail; [1]): 5
Giant foxtail plant response rating (giant foxtail; [2]): 5
Giant foxtail plant response rating (giant foxtail; [3]): 9
Giant foxtail plant response rating (giant foxtail; [4]): 8
Plant response rating, Giant foxtail (giant foxtail; [5]): 9
Plant response rating, Giant foxtail (giant foxtail; [6]): 10
Plant response rating, Giant foxtail (giant foxtail; [7]): 10
Giant foxtail plant response rating (giant foxtail; [8]): 9
Plant response rating, Nutsedge (purple nutsedge; [1]): 0
Nutsedge plant response rating (purple nutsedge; [2]): 0
Nutsedge plant response rating (purple nutsedge; [4]): 0
Plant response rating, Nutsedge (purple nutsedge; [5]): 2
Plant response rating, Nutsedge (purple nutsedge; [6]): 6
Plant response rating, Nutsedge (purple nutsedge; [7]): 6
Nutsedge plant response rating (purple nutsedge; [8]): 0
Plant response rating, Rape (rape; [1]): 0
Rape plant response rating (rape; [2]): 0
Rape plant response rating (rape; [4]): 0
Plant response rating, Rape (rape; [5]): 0
Plant response rating, Rape (rape; [6]): 0
Plant response rating, Rape (rape; [7]): 8
Rape plant response rating (rape; [8]): 2
Plant response rating, Sugarbeets (sugar beet; [1]): 0
Sugarbeets plant response rating (sugar beet; [2]): 0
Sugarbeets plant response rating (sugar beet; [4]): 1
Plant response rating, Sugarbeets (sugar beet; [5]): 9
Plant response rating, Sugarbeets (sugar beet; [6]): 9
Plant response rating, Sugarbeets (sugar beet; [7]): 9
Sugarbeets plant response rating (sugar beet; [8]): 3
Plant response rating, Wild oats (wild oat; [1]): 0
Wild oats plant response rating (wild oat; [2]): 0
Wild oats plant response rating (wild oat; [4]): 0
Plant response rating, Wild oats (wild oat; [5]): 0
Plant response rating, Wild oats (wild oat; [6]): 7
Plant response rating, Wild oats (wild oat; [7]): 5
Wild oats plant response rating (wild oat; [8]): 0
